# Data from patent publication US4981873A, “Substituted sulphonamides, pharmaceuticals thereof and methods of using them” (Boehringer Mannheim GmbH, priority 1988, dated 1991).
# Where two headings read alike, the source gives them in different places.
# Columns and labels:
# [1] = test system: thrombocyte aggregation (U 46619-induced); test: TX antagonistic effect: inhibition of U 46619-induced thrombocyte aggregation in platelet-rich plasma (Born and Cross); type: cell-based; settings: human platelet-rich plasma, citrate, aggregation followed over 5 minutes, read-out: Thromboxane Aggregation IC50
# Description: 1. TX Antagonistic Effect of Human […]
# The thrombocyte aggregation is investigated by the method of Born and Cross (J. Physiol. 168, 178 (1963) in platelet-rich plasma of healthy blood donors. To inhibit clotting, the blood is mixed with 3.2% citrate in a ratio by volume of 1:9.
# To induce thrombocyte aggregation, U 46619 (Upjohn & Co., Kalamazoo, USA), which is a stable analog of the prostaglandin endoperoxide […], is used. U 46619 was characterized as a selective thromboxane mimetic (Coleman et al., Brit. J. Pharmacol. 68, 127 P., 1980).
# The aggregation test is carried out in a 4-channel aggregometer (Profiler® of the Bio/Data Co., USA). The course of the aggregation is followed over a period of 5 minutes. At the end of the test, the degree of aggregation attained is printed out. These values, which are obtained in the presence of different concentrations of the substance to be tested, are used for the determination of the IC50 for the TX antagonistic effect. The effectiveness varies inversely with the IC50 value.
# [2] = test system: U 46619-Induced Pulmonary Embolism; test: Preventing the U 46619-induced pulmonary embolism (survival rate of mouse); type: in vivo; settings: male NMRI mice, lethal U 46619 injected i.v. (tail vein) after 4 hours; for Survival Rate of Mouse 1 mg/kg, 4 h in %: 1 mg/kg by stomach tube; for responders at 25 mg/kg: Mus musculus, iv
# Procedure: 2. Preventing the U 46619-Induced Pulmonary Embolism
# Male NMRI mice, with a body weight of 25 g. are used. The test substance is suspended in 1% methylcellulose and administered to the experimental animals with the help of a stomach tube. The provocation test consists of injecting the lethal dose (800-1000/μg/kg) of the thromboxane mimetic (U 46619 of the Upjohn Co.) rapidly into the tail vein. The duration of the specific antagonistic effect is tested by pretreating the animals with 25 mg or 1 mg/kg of the different test substances and injecting U 46619 after 4 hours. The survival rate indicates how many of the animals used have survived the injection of the thromboxane mimetic.
Molecule,IC50 [1] [µM],"Survival Rate of Mouse 1 mg/kg, 4 h in % [2] [%]","Survival Rate of Mouse 25 mg/kg, 4 h in % ([2]; 25 mg/kg by stomach tube) [%]",IC50 ([1]; 5 min) [µM],responders at 25 mg/kg ([2]; 25 mg/kg by stomach tube) [%]
9-(4-Chlorobenzenesulphonamido)-3-thianonanoic acid [Example 6],3.4,100,80,,
"O=C(O)CSCCCCCCNS(=O)(=O)c1ccc(Cl)cc1 [Example 4, 9-(4-Chlorobenzenesulphonamido)-3-thianonanoic acid]",,,,1.3,40
"O=C(O)C[S+]([O-])CCCCCCNS(=O)(=O)c1ccc(Cl)cc1 (stereo not shown) [Example 5, 9-(4-Chlorobenzenesulphonamido)-3-thianonanoic acid 3-oxide]",,,,2.1,40
"O=C(O)CSCCC/C=C\CNS(=O)(=O)c1ccc(Cl)cc1 [Example 7, (Z)-9-(4-Chlorobenzenesulphonamido)-3-thia-7-enenonanoic acid]",,60,,1.4,100
"CC(C)(CCSCCNS(=O)(=O)c1ccc(Cl)cc1)C(=O)O [Example 8, 7-(4-Chlorobenzenesulphonamido)-2,2-dimethyl-5-thiaheptanoic acid]",,,,13,40
"CC(C)(CCSCCNS(=O)(=O)c1ccc(Cl)cc1)CC(=O)O [Example 8.3, 8-(4-Chlorobenzenesulphonamido)-3,3-dimethyl-6-thiaoctanoic acid]",,,,5,40
"CC(C)(SCCCCCNS(=O)(=O)c1ccc(Cl)cc1)C(=O)O [Example 9, 8-(4-Chlorobenzenesulphonamido)-2,2-dimethyl-3-thiaoctanoic acid]",,,,5.2,40
"COc1ccc(S(=O)(=O)NCCCCCSC(C)(C)C(=O)O)cc1 [Example 9.2, 8-(4-Methoxybenzenesulphonamido)-2,2-dimethyl-3-thiaoctanoic acid]",,20,,100,60
"CC(C)(CCCSCCCNS(=O)(=O)c1ccc(Cl)cc1)C(=O)O [Example 11, 9-(4-Chlorobenzenesulphonamido)-2,2-dimethyl-6-thianonanoic acid]",,0,,60,80
"CC(C)(CCSCCCNS(=O)(=O)c1ccc(Cl)cc1)CC(=O)O [Example 11.2, 9-(4-Chlorobenzenesulphonamido)-3,3-dimethyl-6-thianonanoic acid]",,0,,100,80
